pIC50: −log10 of the molar value.
How the values were obtained:
[1] = Inhibitory concentration against CDK2/ Cyclin A
[2] = target: Cyclin-dependent kinase 1/cyclin B1 (Homo sapiens, UniProt P06493); experiment: Inhibitory concentration against CDK1/ Cyclin B; type: protein-complex assay
[3] = target: Cyclin-dependent kinase 2/cyclin E1 (Homo sapiens, UniProt P24941); experiment: Inhibitory concentration against CDK2/ Cyclin E; type: protein-complex assay
[4] = Distribution coefficient at pH 7.4; type: physicochemical; conditions: octanol/water
[5] = target: Cyclin-dependent kinase 4/cyclin D1 (Homo sapiens, UniProt P11802); experiment: Inhibitory concentration against CDK4/ Cyclin D; type: protein-complex assay
Sequence of Cyclin-dependent kinase 4/cyclin D1 (P11802 whole entry): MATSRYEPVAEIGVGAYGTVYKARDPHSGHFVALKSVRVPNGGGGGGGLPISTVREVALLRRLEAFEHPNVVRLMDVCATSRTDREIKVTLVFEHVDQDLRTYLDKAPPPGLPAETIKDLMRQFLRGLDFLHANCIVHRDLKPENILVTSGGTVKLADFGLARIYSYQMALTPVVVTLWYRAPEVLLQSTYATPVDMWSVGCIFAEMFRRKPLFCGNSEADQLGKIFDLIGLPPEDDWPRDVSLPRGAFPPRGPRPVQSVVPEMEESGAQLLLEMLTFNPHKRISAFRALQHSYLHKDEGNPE
Sequence of Cyclin-dependent kinase 4/cyclin D1 (P24385 whole entry, further chain): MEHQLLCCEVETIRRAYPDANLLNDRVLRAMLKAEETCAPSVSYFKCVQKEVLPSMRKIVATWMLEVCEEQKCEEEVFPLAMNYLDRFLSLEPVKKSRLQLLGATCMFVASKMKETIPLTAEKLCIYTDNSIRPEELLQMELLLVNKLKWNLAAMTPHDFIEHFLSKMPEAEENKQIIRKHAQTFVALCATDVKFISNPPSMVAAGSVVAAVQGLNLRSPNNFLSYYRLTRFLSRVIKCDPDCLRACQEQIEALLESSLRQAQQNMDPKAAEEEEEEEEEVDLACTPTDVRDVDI

[6] = system: HCT-116; experiment: Antiproliferative activity against HCT116 cell lines of human; type: functional, cell-based

Sequence of Cyclin-dependent kinase 1/cyclin B1 (P06493 whole entry): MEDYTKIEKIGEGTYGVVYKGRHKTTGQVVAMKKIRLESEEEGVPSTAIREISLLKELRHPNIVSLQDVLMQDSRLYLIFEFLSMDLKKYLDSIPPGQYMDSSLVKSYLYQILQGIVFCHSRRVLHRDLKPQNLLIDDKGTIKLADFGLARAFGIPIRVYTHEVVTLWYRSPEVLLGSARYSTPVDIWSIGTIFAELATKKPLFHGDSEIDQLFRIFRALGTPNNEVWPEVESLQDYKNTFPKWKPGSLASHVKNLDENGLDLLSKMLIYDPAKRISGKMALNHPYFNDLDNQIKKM
Sequence of Cyclin-dependent kinase 1/cyclin B1 (P14635 whole entry, further chain): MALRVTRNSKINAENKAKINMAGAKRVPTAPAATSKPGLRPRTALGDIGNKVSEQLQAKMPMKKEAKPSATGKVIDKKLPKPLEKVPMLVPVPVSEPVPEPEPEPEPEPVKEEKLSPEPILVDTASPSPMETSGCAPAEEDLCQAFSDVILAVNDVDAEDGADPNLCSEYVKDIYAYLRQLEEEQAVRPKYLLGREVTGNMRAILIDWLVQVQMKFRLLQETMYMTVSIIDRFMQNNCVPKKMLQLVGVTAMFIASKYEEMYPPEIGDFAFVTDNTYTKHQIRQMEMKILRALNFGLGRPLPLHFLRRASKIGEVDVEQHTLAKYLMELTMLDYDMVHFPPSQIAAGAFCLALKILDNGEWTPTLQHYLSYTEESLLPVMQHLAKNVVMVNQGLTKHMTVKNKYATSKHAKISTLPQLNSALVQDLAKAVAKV

Row | SMILES | pIC50 [1] | pIC50 [2] | pIC50 [3] | logD [4] | pIC50 [5] | pIC50 [6]
1 | COc1ccc2cnc(Nc3ccc(N4CCNCC4)cc3)nc2c1C1CCCC1 | 7.55 | – | – | – | – | –
2 | COc1ccc2cnc(Nc3ccc(N4CCN(C(=O)CN)CC4)cc3)nc2c1C1CCCC1 | 7.02 | – | – | – | – | –
3 | COc1ccc2cnc(Nc3ccc(N4CCNCC4)c(F)c3)nc2c1C1CCCC1 | 7.21 | – | – | – | – | –
4 | COc1ccc2cnc(Nc3ccc(N4CCN(C(C)=O)CC4)cc3)nc2c1C1CCCC1 | – | < 5.30 | – | – | – | –
5 | COc1ccc2cnc(Nc3ccc(N4CCCC4)cc3)nc2c1C1CCCC1 | < 5.30 | < 5.30 | – | – | – | –
6 | COc1ccc2cnc(Nc3ccc(N4CCN(C(=O)CN)CC4)cc3)nc2c1C(C)C | 6.72 | – | – | – | – | –
7 | COc1cc(C)c2cnc(Nc3ccc(N4CCNCC4)cc3)nc2c1C1CCCC1 | < 5.30 | < 5.30 | < 5.30 | 2.32 | 7.26 | –
8 | Cc1cc(O)c(C2CCCC2)c2nc(Nc3ccc(N4CCNCC4)cc3)ncc12 | < 5.30 | < 5.30 | < 5.30 | 1.39 | 7.70 | 7.00
9 | COc1ccc2cnc(Nc3ccc(N4CCC(N)C4)cc3)nc2c1C(C)C (stereo unspecified) | 6.53 | – | – | – | – | –
10 | Cc1cc(=O)n(C2CCCC2)c2nc(Nc3ccc(N4CCNCC4)cc3)ncc12 | – | < 5.30 | – | 0.63 | – | –
11 | COc1ccc2cnc(Nc3ccc(N4CCNCC4)c(F)c3)nc2c1C(C)C | 6.85 | 6.13 | 6.18 | – | 8.15 | –
12 | COc1ccc2cnc(Nc3ccc(N4CCNCC4)cc3)nc2c1C(C)C | 6.73 | – | – | – | – | –
13 | COc1ccc2cnc(Nc3ccc(N4CCOCC4)cc3)nc2c1C(C)C | 6.18 | – | – | – | – | –
14 | Oc1ccc2cnc(Nc3ccc(N4CCNCC4)cc3)nc2c1C1CCCC1 | 7.09 | 7.52 | 6.49 | – | 9.00 | –
15 | COc1ccc2cnc(Nc3ccc(N4CCC(N)C4)cc3)nc2c1C1CCCC1 (stereo unspecified) | 6.69 | – | 6.11 | – | – | –
16 | Oc1ccc2cnc(Nc3ccc(N4CCOCC4)cc3)nc2c1C1CCCC1 | 6.74 | 5.71 | 6.20 | – | 8.52 | –
17 | COc1ccc2cnc(Nc3ccc(N4CCCCC4)cc3)nc2c1C(C)C | 6.39 | < 5.30 | – | – | – | –
18 | COc1ccc2cnc(Nc3ccc(N4CCCC4)cc3)nc2c1C(C)C | 5.80 | < 5.30 | < 5.30 | – | – | –
19 | COc1ccc2cnc(Nc3ccccc3)nc2c1C1CCCC1 | 6.69 | 6.10 | 6.19 | – | 6.78 | –
20 | COc1cc(C)c2cnc(Nc3ccc(N4CCN(C(C)=O)CC4)cc3)nc2c1C1CCCC1 | < 5.30 | < 5.30 | < 5.30 | 3.77 | 5.38 | –
21 | COc1ccc2cnc(Nc3ccc(N4CCCCC4)cc3)nc2c1C1CCCC1 | 6.42 | < 5.30 | < 5.30 | – | – | –
22 | COc1ccc2cnc(Nc3ccc(N4CCOCC4)cc3)nc2c1C1CCCC1 | 6.42 | – | – | – | – | –
23 | Oc1ccc2cnc(Nc3ccc(N4CCNCC4)c(F)c3)nc2c1C1CCCC1 | 6.95 | 6.12 | 6.57 | – | 9.00 | –
24 | COc1ccc2cnc(Nc3ccccc3)nc2c1C(C)C | 6.60 | – | – | – | – | –
25 | CC(C)c1c(O)ccc2cnc(Nc3ccccc3)nc12 | 6.60 | – | – | – | – | –

Source: ChEMBL document CHEMBL1142797, “2-Aminoquinazoline inhibitors of cyclin-dependent kinases” (Bioorg Med Chem Lett, 2005)
